Measured values taken from PMC1082716, “Blockade of chemokine-induced signalling inhibits CCR5-dependent HIV infection in vitro without blocking gp120/CCR5 interaction” (Retrovirology, 2005).
“Also recorded” adds a separate entry of the source.

Key:
[1] = tested on: CXCR4-dependent infection of Jurkat T cells; assay: CXCR4-dependent HIV infection of Jurkat T cells (assay not specified); assay type: cell-based, HIV-1
Method: HIV infection of Jurkat T-cells using the laboratory-adapted T-tropic isolate IIIb was monitored using two different assays. Firstly, Jurkat T-cells in 96-well plates were pre-treated with either Peptide 3, vehicle (as a negative control) or SDF1α (as a positive control) for 4 hours, then exposed to HIV virus (10^6 TCID50) and pulsed at 2–3 day intervals with Peptide 3, SDF1α or medium alone as appropriate. After two weeks in culture, the extent of viral infection was assayed by measuring the reverse transcriptase activity in the supernatant, as a measure of viral replication in the culture In six separate experiments, Peptide 3 (100 μM) had no effect on virus replication following HIV exposure (Fig 3a), while SDF1α inhibited reverse transcriptase activity by an average of 75%. […]
HIV infection of Jurkat T-cells was also monitored by high sensitivity quantitative immunofluoresence detection of viral p24^gag expression. […] Expression of p24^gag was determined using quantitative immunofluoresence as previously described, except that the primary antibody was post-fixed to the section using paraformaldehyde to increase the sensitivity of the technique (see Methods). Viral infectivity was expressed as the number of cells stained for p24^gag expressed as a proportion of the total number of cells (detected using Hoechst 33342 nuclear dye). […]

[2] = tested on: chemokine receptors; conditions: ref [27]; cited from earlier work

EICADPKQKWVQ [Peptide 3]
Effect on CXCR4-dependent HIV infection of Jurkat T cells [1]: did not affect; also recorded: no effect
Effect on binding of chemokine ligands to the receptors [2]: do not block
